Where a SMILES comes first, the peptide text is derived from it. Where no end group is shown, it is not given here. The star is where a group is joined. Cbz = O=C(OCc1ccccc1)*
Key:
[1] = tested on: SMAR1 expression in HCT116 cells and an array of CRC cell lines; test: Western blot / confocal: SMAR1 protein expression after peptide treatment; format: cell-based; details: Wnt3a CM or rh Wnt3a ligand (200 ng/mL), LiCl 30 mM for 6 hrs, MG132 10 μM with or without Wnt3a CM
Description: (§1) HCT116, SW480, SW620, HCT15 and HT29 cells (obtained from NCCS, Pune) were cultured in DMEM medium with 10% Fetal Bovine Serum (Gibco) and 100 Units of Penicillin Streptomycin antibiotics (Gibco). HCT116 stable cells were generated using GFP-SMAR1, GFP-control and GFP-sh-SMAR1 plasmids. si-HDAC5 plasmid was purchased from Santa Cruz Biotechnology. Conditioned medium were prepared using L cells and L-Wnt3a cells (kind gift from Jomon Joseph, NCCS Pune). After culturing for 7 days supernatant was collected and filtered through 0.22 micron syringe filter. Cells were treated with peptides (provided by Amrita Therapeutics) for 48 hours. Lipofectamine 2000 (Invitrogen) was used for transfection purposes.
Proteins were extracted using lysis buffer (50 mM Tris-Cl pH 7.5, 5 mM EDTA, 0.5% NP40, 50 mM NaF, 1 mM DTT, 0.2 mM sodium orthovanadate, 0.5 mM PMSF, 150 mM NaCl and 1X Protease Inhibitor cocktail). 40 μg proteins were transferred to PVDF membranes by Western blotting technique and blots were blocked with 5% BSA and incubated in primary antibodies. Blots were then incubated with HRP conjugated secondary antibodies and developed in X-ray films. For IP, proteins extracted were pre-cleared with Protein A/G beads (Invitrogen) and immunoprecipitated overnight with desired antibodies. Protein A/G beads were used to pull-down the protein-antibody complex and western blot was performed to check the interaction.
For confocal studies cells were fixed with 4% para-formaldehyde solution and permeabilized using 0.1% TritonX-100 solution. Cells were incubated with 1:250 dilution SMAR1 (Bethyl) antibody for 2 hours and later with 1:250 dilution Cy3 (Life Technologies) antibody for 1 hour. Coverslips containing cells were mounted using DAPI containing mounting medium (Fluoroshield with DAPI, Sigma). Human colon paraffinized tissue sections were de-paraffinized by heating in a microwave oven and later washed with xylene and alcohol. Antigen retrieval was performed and washed with PBS for further staining with 1:250 SMAR1 (Bethyl) and 1:250 β-catenin (BD Bioscience) antibodies. […]

HCT116 cells = details: 48 h
[2] = NOD-SCID mice, 25 mg/kg body weight intra-peritoneally on alternate days for 21 days, throughout the course of treatment
[3] = tested on: β-catenin expression in HCT116 cells; test: Western blot: β-catenin expression; format: cell-based; details: Wnt3a CM or rh Wnt3a ligand (200 ng/mL)
Description: as §1
Proteins were extracted using lysis buffer (50 mM Tris-Cl pH 7.5, 5 mM EDTA, 0.5% NP40, 50 mM NaF, 1 mM DTT, 0.2 mM sodium orthovanadate, 0.5 mM PMSF, 150 mM NaCl and 1X Protease Inhibitor cocktail). 40 μg proteins were transferred to PVDF membranes by Western blotting technique and blots were blocked with 5% BSA and incubated in primary antibodies. Blots were then incubated with HRP conjugated secondary antibodies and developed in X-ray films. For IP, proteins extracted were pre-cleared with Protein A/G beads (Invitrogen) and immunoprecipitated overnight with desired antibodies. […]

[4] = tested on: β-catenin promoter in HCT116 cells; test: ChIP: occupancy of SMAR1, HDAC5 and H3K9 Ac at β-catenin promoter; format: cell-based; details: Wnt3a CM stimulation, mean ± SD, n = 3
Description: HCT116 cells were transfected with GFP-control, GFP-SMAR1, GFP-sh-SMAR1 or HDAC5 siRNA plasmids. ChIP was performed using Millipore reagents supplied according to the manufacturer's protocol. The protein-DNA complex were immunoprecipitated overnight at 4° C using SMAR1 (Bethyl), HDAC5 (Cell Signaling), H3K9Ac (Cell Signaling) or IgG (Santa Cruz Biotechnology) antibodies (1 μg each). PCR was performed with the primers flanking the binding sites of SMAR1 in β-catenin promoter. […]. The PCR conditions were 95° C for 1 minute, 55° C for 1 minute and 72° C for 1 minute for 35 cycles. The PCR amplicons obtained were run in 1% Agarose (Sigma) gel and documented.

[5] = tested on: β-catenin promoter (pEGFP1-β-catenin) in HCT116 cells; test: Flow cytometry of pEGFP1-β-catenin GFP expression; format: cell-based; details: pEGFP1-β-catenin transfected HCT116 cells, 200 ng/mL rh Wnt3a ligand; n = 3, SD
From the text: Genomic DNA was isolated from HCT116 cells and amplified with primers flanking binding sites of SMAR1 in β-catenin promoter. […]. The amplicon was ligated into pEGFP1 vector using T4 DNA ligase (NEB) after restriction digestion with XhoI and KpnI enzymes (NEB). Plasmids were transformed into DH5α E. coli competent cells and positive clones were identified after restriction digestion with XhoI and KpnI. The cloned β-catenin promoter was christened as pEGFP1-β-catenin.
HCT116 cells were co-transfected with FLAG-SMAR1 and pEGFP1-β-catenin plasmids or treated with rh Wnt3a ligand after transfection with pEGFP1-β-catenin. For flow cytometry analysis HCT116 cells were trypsinized using Trypsin-EDTA (Gibco) and washed thrice with PBS buffer. Cells were then passed through cell strainer (BD Falcon) and collected in flow cytometry tubes. GFP expressions were quantitated by subjecting 1 × 10^4 cells to BD FACSCalibur flow cytometry. FL1 channel was used to sort and quantify the GFP cells. Using CellQuest Pro software the histogram plots were derived and the GFP percentages were calculated. The graphs corresponding to the GFP percentage were generated using SigmaPlot software.

## [Cl-].[Li+] [LiCl]
[1]
  SMAR1 protein level after treatment: failed to downregulate SMAR1

## CC(C)C[C@@H](C=O)NC(=O)[C@H](CC(C)C)NC(=O)[C@H](CC(C)C)NC(=O)OCc1ccccc1 [MG132] (Cbz-Leu-Leu-Leu-aldehyde)
[1]
  SMAR1 protein level after treatment: SMAR1 protein stability was observed

## ATATVNAIRGSVTPAVSQFN [AT-01C]
HCT116 cells
  IC50 value (MTT assay): 10 µg/mL
[2]
  adverse effects: no observable adverse effects

## NAIRGSVTPAVSQFN [AT-01D]
HCT116 cells
  IC50 value (MTT assay): 9.90 µg/mL
[2]
  adverse effects: no observable adverse effects

## Wnt3a
[1]
  SMAR1 protein level after treatment: significant downregulation of SMAR1
[3]
  β-catenin levels after Wnt3a stimulation: concomitant rise in the β-catenin levels
[4]
  increased H3K9 Ac occupancy in β-catenin promoter: 4.72 fold
  reduced occupancy of HDAC5 in β-catenin promoter: 4.77 fold
  reduced occupancy of SMAR1 in β-catenin promoter: 4.54 fold

B1: rh Wnt3a: recombinant human (rh) Wnt3a ligand (protein, UniProt P56704 19-352, looked up)
Protein Wnt-3a: SYPIWWSLAVGPQYSSLGSQPILCASIPGLVPKQLRFCRNYVEIMPSVAEGIKIGIQECQHQFRGRRWNCTTVHDSLAIFGPVLDKATRESAFVHAIASAGVAFAVTRSCAEGTAAICGCSSRHQGSPGKGWKWGGCSEDIEFGGMVSREFADARENRPDARSAMNRHNNEAGRQAIASHMHLKCKCHGLSGSCEVKTCWWSQPDFRAIGDFLKDKYDSASEMVVEKHRESRGWVETLRPRYTYFKVPTERDLVYYEASPNFCEPNPETGSFGTRDRTCNVSSHGIDGCDLLCCGRGHNARAERRREKCRCVFHWCCYVSCQECTRVYDVHTCK
[5]
  increase in GFP expression (β-catenin promoter activity): about 45%

Reference: article PMC5940383, “SMAR1 inhibits Wnt/β-catenin signaling and prevents colorectal cancer progression” (Oncotarget, 2018)
